Assay results reported in the NIST ThermoML archive (doi:10.1016/j.fluid.2010.10.028).

Experiment: xn = mol fraction of the nth substance listed
Conditions: Liquid, Vibrating tube method

CC(C)=O [acetone] + CCCCCCC
Conditions	mass density [kg/m3]
387.33 K, 39820 kPa, x1 = 0.7024	691.19
387.33 K, 44790 kPa, x1 = 0.7024	696.6
387.33 K, 44850 kPa, x1 = 0.801	707.68
387.33 K, 44910 kPa, x1 = 0.4	722
387.33 K, 44910 kPa, x1 = 0.8992	722
387.33 K, 49890 kPa, x1 = 0.7024	701.8
387.33 K, 54870 kPa, x1 = 0.4	732.14
387.33 K, 54870 kPa, x1 = 0.8992	732.14
387.33 K, 59840 kPa, x1 = 0.492	692.57
387.33 K, 59880 kPa, x1 = 0.7024	711.17
387.33 K, 69820 kPa, x1 = 0.801	731
387.33 K, 69830 kPa, x1 = 0.4	745.58
387.33 K, 69830 kPa, x1 = 0.8992	745.58
387.33 K, 79900 kPa, x1 = 0.801	739.02
387.33 K, 84880 kPa, x1 = 0.801	742.74
387.33 K, 89860 kPa, x1 = 0.801	746.32
387.33 K, 99770 kPa, x1 = 0.7024	741.29
387.33 K, 99830 kPa, x1 = 0.801	753.17
387.33 K, 114840 kPa, x1 = 0.801	762.65
387.33 K, 124840 kPa, x1 = 0.801	768.53
387.33 K, 129850 kPa, x1 = 0.801	771.37
387.34 K, 1350 kPa, x1 = 0.492	613.12
387.34 K, 14820 kPa, x1 = 0.7024	656.98
387.34 K, 19850 kPa, x1 = 0.492	648.12
387.34 K, 24830 kPa, x1 = 0.7024	672.45
387.34 K, 24840 kPa, x1 = 0.492	655.23
387.34 K, 29850 kPa, x1 = 0.492	661.75
387.34 K, 34810 kPa, x1 = 0.7024	685.41
387.34 K, 34840 kPa, x1 = 0.492	667.74
387.34 K, 39870 kPa, x1 = 0.492	673.37
387.34 K, 44860 kPa, x1 = 0.492	678.6
387.34 K, 49850 kPa, x1 = 0.492	683.53
387.34 K, 54850 kPa, x1 = 0.492	688.17
387.34 K, 54880 kPa, x1 = 0.7024	706.61
387.34 K, 64820 kPa, x1 = 0.492	696.75
387.34 K, 64880 kPa, x1 = 0.7024	715.51
387.34 K, 69860 kPa, x1 = 0.7024	719.63
387.34 K, 69930 kPa, x1 = 0.492	700.84
387.34 K, 74840 kPa, x1 = 0.7024	723.6
387.34 K, 74900 kPa, x1 = 0.492	704.65
387.34 K, 79840 kPa, x1 = 0.7024	727.41
387.34 K, 79890 kPa, x1 = 0.492	708.31
387.34 K, 84810 kPa, x1 = 0.7024	731.07
387.34 K, 84890 kPa, x1 = 0.492	711.86
387.34 K, 89810 kPa, x1 = 0.7024	734.6
387.34 K, 89860 kPa, x1 = 0.492	715.24
387.34 K, 94770 kPa, x1 = 0.7024	737.98
387.34 K, 94840 kPa, x1 = 0.492	718.51
387.34 K, 99820 kPa, x1 = 0.492	721.68
387.34 K, 104740 kPa, x1 = 0.7024	744.46
387.34 K, 104800 kPa, x1 = 0.492	724.73
387.34 K, 109720 kPa, x1 = 0.7024	747.55
387.34 K, 109770 kPa, x1 = 0.492	727.68
387.34 K, 114800 kPa, x1 = 0.7024	750.59
387.34 K, 114840 kPa, x1 = 0.492	730.61
387.34 K, 119810 kPa, x1 = 0.7024	753.51
387.34 K, 119850 kPa, x1 = 0.492	733.41
387.34 K, 124820 kPa, x1 = 0.7024	756.37
387.34 K, 124850 kPa, x1 = 0.492	736.14
387.34 K, 129810 kPa, x1 = 0.7024	759.13
387.34 K, 129840 kPa, x1 = 0.492	738.77
397.26 K, 1500 kPa, x1 = 0.801	626.11
397.26 K, 1680 kPa, x1 = 0.4	640.61
397.26 K, 1680 kPa, x1 = 0.8992	640.61
397.26 K, 5010 kPa, x1 = 0.4	649.41
397.26 K, 5010 kPa, x1 = 0.8992	649.41
397.26 K, 14870 kPa, x1 = 0.611	638.19
397.26 K, 14980 kPa, x1 = 0.4	670.71
397.26 K, 14980 kPa, x1 = 0.8992	670.71
397.26 K, 19970 kPa, x1 = 0.4	679.48
397.26 K, 19970 kPa, x1 = 0.8992	679.48
397.26 K, 29940 kPa, x1 = 0.4	694.66
397.26 K, 29940 kPa, x1 = 0.8992	694.66
397.26 K, 44910 kPa, x1 = 0.4	713.39
397.26 K, 44910 kPa, x1 = 0.8992	713.39
397.26 K, 49900 kPa, x1 = 0.4	718.87
397.26 K, 49900 kPa, x1 = 0.8992	718.87
397.26 K, 54890 kPa, x1 = 0.4	724.02
397.26 K, 54890 kPa, x1 = 0.8992	724.02
397.26 K, 59880 kPa, x1 = 0.4	728.9
397.26 K, 59880 kPa, x1 = 0.8992	728.9
397.26 K, 64940 kPa, x1 = 0.611	699.14
397.26 K, 69840 kPa, x1 = 0.4	738.01
397.26 K, 69840 kPa, x1 = 0.8992	738.01
397.26 K, 74820 kPa, x1 = 0.4	742.26
397.26 K, 74820 kPa, x1 = 0.8992	742.26
397.26 K, 84790 kPa, x1 = 0.4	750.27
397.26 K, 84790 kPa, x1 = 0.8992	750.27
397.26 K, 89770 kPa, x1 = 0.4	754.07
397.26 K, 89770 kPa, x1 = 0.8992	754.07
397.26 K, 104690 kPa, x1 = 0.4	764.67
397.26 K, 104690 kPa, x1 = 0.8992	764.67
397.26 K, 109670 kPa, x1 = 0.4	767.98
397.26 K, 109670 kPa, x1 = 0.8992	767.98
397.26 K, 114610 kPa, x1 = 0.4	771.16
397.26 K, 114610 kPa, x1 = 0.8992	771.16
397.26 K, 119600 kPa, x1 = 0.4	774.27
397.26 K, 119600 kPa, x1 = 0.8992	774.27
397.27 K, 1520 kPa, x1 = 0.611	608
397.27 K, 4850 kPa, x1 = 0.801	635.17
397.27 K, 4860 kPa, x1 = 0.611	616.98
397.27 K, 9850 kPa, x1 = 0.801	646.73
397.27 K, 9870 kPa, x1 = 0.611	628.41
397.27 K, 10000 kPa, x1 = 0.4	660.81
397.27 K, 10000 kPa, x1 = 0.8992	660.81
397.27 K, 14860 kPa, x1 = 0.801	656.72
397.27 K, 19840 kPa, x1 = 0.801	665.54
397.27 K, 19860 kPa, x1 = 0.611	646.79
397.27 K, 24850 kPa, x1 = 0.611	654.54
397.27 K, 24870 kPa, x1 = 0.801	673.51
397.27 K, 24950 kPa, x1 = 0.4	687.4
397.27 K, 24950 kPa, x1 = 0.8992	687.4
397.27 K, 29850 kPa, x1 = 0.611	661.6
397.27 K, 34860 kPa, x1 = 0.801	687.43
397.27 K, 34870 kPa, x1 = 0.611	668.12
397.27 K, 34940 kPa, x1 = 0.4	701.35
397.27 K, 34940 kPa, x1 = 0.8992	701.35
397.27 K, 39870 kPa, x1 = 0.611	674.11
397.27 K, 39930 kPa, x1 = 0.4	707.57
397.27 K, 39930 kPa, x1 = 0.8992	707.57
397.27 K, 44850 kPa, x1 = 0.801	699.35
397.27 K, 44870 kPa, x1 = 0.611	679.73
397.27 K, 49850 kPa, x1 = 0.611	684.97
397.27 K, 49850 kPa, x1 = 0.801	704.77
397.27 K, 54850 kPa, x1 = 0.611	689.91
397.27 K, 54860 kPa, x1 = 0.801	709.87
397.27 K, 59840 kPa, x1 = 0.611	694.59
397.27 K, 64820 kPa, x1 = 0.801	719.28
397.27 K, 64860 kPa, x1 = 0.4	733.56
397.27 K, 64860 kPa, x1 = 0.8992	733.56
397.27 K, 69920 kPa, x1 = 0.611	703.34
397.27 K, 69920 kPa, x1 = 0.801	723.77
397.27 K, 79800 kPa, x1 = 0.4	746.33
397.27 K, 79800 kPa, x1 = 0.8992	746.33
397.27 K, 79900 kPa, x1 = 0.801	731.97
397.27 K, 79910 kPa, x1 = 0.611	711.27
397.27 K, 84880 kPa, x1 = 0.611	715
397.27 K, 84880 kPa, x1 = 0.801	735.83
397.27 K, 89870 kPa, x1 = 0.611	718.57
397.27 K, 89870 kPa, x1 = 0.801	739.53
397.27 K, 94750 kPa, x1 = 0.4	757.72
397.27 K, 94750 kPa, x1 = 0.8992	757.72
397.27 K, 94840 kPa, x1 = 0.801	743.11
397.27 K, 94850 kPa, x1 = 0.611	722.01
397.27 K, 99720 kPa, x1 = 0.4	761.24
397.27 K, 99720 kPa, x1 = 0.8992	761.24
397.27 K, 99830 kPa, x1 = 0.611	725.33
397.27 K, 104800 kPa, x1 = 0.611	728.56
397.27 K, 104800 kPa, x1 = 0.801	749.91
397.27 K, 109770 kPa, x1 = 0.611	731.66
397.27 K, 119830 kPa, x1 = 0.801	759.4
397.27 K, 124560 kPa, x1 = 0.4	777.29
397.27 K, 124560 kPa, x1 = 0.8992	777.29
397.27 K, 129820 kPa, x1 = 0.4	780.45
397.27 K, 129820 kPa, x1 = 0.8992	780.45
397.27 K, 129840 kPa, x1 = 0.801	765.29
397.28 K, 1470 kPa, x1 = 0.7024	615.75
397.28 K, 1500 kPa, x1 = 0.492	600.98
397.28 K, 4850 kPa, x1 = 0.7024	624.89
397.28 K, 4860 kPa, x1 = 0.492	609.77
397.28 K, 9830 kPa, x1 = 0.7024	636.41
397.28 K, 9850 kPa, x1 = 0.492	620.92
397.28 K, 14840 kPa, x1 = 0.7024	646.37
397.28 K, 14860 kPa, x1 = 0.492	630.52
397.28 K, 19840 kPa, x1 = 0.7024	655.11
397.28 K, 24820 kPa, x1 = 0.7024	662.95
397.28 K, 29820 kPa, x1 = 0.7024	670.12
397.28 K, 29840 kPa, x1 = 0.492	653.43
397.28 K, 29860 kPa, x1 = 0.801	680.72
397.28 K, 34830 kPa, x1 = 0.7024	676.7
397.28 K, 34860 kPa, x1 = 0.492	659.77
397.28 K, 39840 kPa, x1 = 0.7024	682.81
397.28 K, 39850 kPa, x1 = 0.801	693.57
397.28 K, 44820 kPa, x1 = 0.7024	688.48
397.28 K, 44860 kPa, x1 = 0.492	671.15
397.28 K, 49810 kPa, x1 = 0.7024	693.79
397.28 K, 54840 kPa, x1 = 0.492	681.14
397.28 K, 54910 kPa, x1 = 0.7024	698.93
397.28 K, 59840 kPa, x1 = 0.492	685.74
397.28 K, 59850 kPa, x1 = 0.801	714.7
397.28 K, 59860 kPa, x1 = 0.7024	703.65
397.28 K, 64820 kPa, x1 = 0.492	690.08
